Among the data in article PMC9856672, “SGC-CAMKK2-1: A Chemical Probe for CAMKK2” (Cells, 2023) are remaining binding values, retold here.

One test addresses T1, CAMK1G (Homo sapiens, UniProt Q96NX5).
T1 construct: purchased Eurofins DiscoverX KINOMEscan
Nature of the test: KINOMEscan 1 μM, CAMK1G. It counts as binding. To be noted: 1000 nM; Entrez CAMK1G; read-out: Percent Control. The source says:
(§1) Supplement cells-12-00287-s001.zip/File S2. KinomeScan data for the CAMKK2 probe and negative control.xlsx, sheet "SGC-CAMKK2-1" | column: Percent Control

The next test concerns the target T2, CSF1R-autoinhibited (Homo sapiens, UniProt P07333).
T2 construct: purchased Eurofins DiscoverX KINOMEscan
Nature of the test: KINOMEscan 1 μM, CSF1R-autoinhibited. Type of test: binding. Conditions: 1000 nM; Entrez CSF1R; read-out: Percent Control.
Description: as §1

A further test concerns the target T3, SYK (Homo sapiens, UniProt P43405).
T3 construct: purchased Eurofins DiscoverX KINOMEscan
Nature of the test: KINOMEscan 1 μM, SYK. Type of test: binding. Conditions: 1000 nM; Entrez SYK; read-out: Percent Control.
Description: as §1

Another test has as its target T4, CSNK1G2 (Homo sapiens, UniProt P78368).
T4 construct: purchased Eurofins DiscoverX KINOMEscan
Kind of test: KINOMEscan 1 μM, CSNK1G2. Type of test: binding. To be noted: 1000 nM; Entrez CSNK1G2; read-out: Percent Control.
Description: as §1

Another test addresses T5, STK36 (Homo sapiens, UniProt Q9NRP7).
T5 construct: purchased Eurofins DiscoverX KINOMEscan
Nature of the test: KINOMEscan 1 μM, STK36. It counts as binding. Conditions: 1000 nM; Entrez STK36; read-out: Percent Control.
Description: as §1

The next test concerns the target T6, GSK3A (Homo sapiens, UniProt P49840).
T6 construct: purchased Eurofins DiscoverX KINOMEscan
Kind of test: KINOMEscan 1 μM, GSK3A. It counts as binding. To be noted: 1000 nM; Entrez GSK3A; read-out: Percent Control.
Description: as §1

For a further test, the target named is T7, ACVRL1 (Homo sapiens, UniProt P37023).
T7 construct: purchased Eurofins DiscoverX KINOMEscan
T7 sequence (P37023 22-503): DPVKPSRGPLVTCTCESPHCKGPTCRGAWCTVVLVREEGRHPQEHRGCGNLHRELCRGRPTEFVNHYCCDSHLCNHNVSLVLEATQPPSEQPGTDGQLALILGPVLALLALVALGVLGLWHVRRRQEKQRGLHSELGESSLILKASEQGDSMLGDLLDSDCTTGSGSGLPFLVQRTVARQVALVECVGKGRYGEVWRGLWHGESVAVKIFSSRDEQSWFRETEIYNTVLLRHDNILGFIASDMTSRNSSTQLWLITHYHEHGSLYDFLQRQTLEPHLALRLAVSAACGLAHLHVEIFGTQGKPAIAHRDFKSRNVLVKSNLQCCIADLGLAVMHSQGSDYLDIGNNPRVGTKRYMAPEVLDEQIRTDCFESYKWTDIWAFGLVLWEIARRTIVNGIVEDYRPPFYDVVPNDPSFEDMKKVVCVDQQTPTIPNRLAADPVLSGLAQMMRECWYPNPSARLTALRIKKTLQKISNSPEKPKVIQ
Nature of the test: KINOMEscan 1 μM, ACVRL1. Type of test: binding. To be noted: 1000 nM; Entrez ACVRL1; read-out: Percent Control.
Description: as §1

In a further test the target is T8, BMPR2 (Homo sapiens, UniProt Q13873).
T8 construct: purchased Eurofins DiscoverX KINOMEscan
Nature of the test: KINOMEscan 1 μM, BMPR2. To be noted: 1000 nM; Entrez BMPR2; read-out: Percent Control. It counts as binding.
Description: as §1

Another test addresses T9, MAPKAPK5 (Homo sapiens, UniProt Q8IW41).
T9 construct: purchased Eurofins DiscoverX KINOMEscan
Nature of the test: KINOMEscan 1 μM, MAPKAPK5. It counts as binding. Conditions: 1000 nM; Entrez MAPKAPK5; read-out: Percent Control.
Description: as §1

For the next test, the target named is T10, MARK3 (Homo sapiens, UniProt P27448).
T10 construct: purchased Eurofins DiscoverX KINOMEscan
Nature of the test: KINOMEscan 1 μM, MARK3. Type of test: binding. Conditions: 1000 nM; Entrez MARK3; read-out: Percent Control.
Description: as §1

The target in a further test is T11, NEK7 (Homo sapiens, UniProt Q8TDX7).
T11 construct: purchased Eurofins DiscoverX KINOMEscan
Nature of the test: KINOMEscan 1 μM, NEK7. It counts as binding. To be noted: 1000 nM; Entrez NEK7; read-out: Percent Control.
Description: as §1

For a further test, the target named is T12, SIK (Homo sapiens, UniProt P57059).
T12 construct: purchased Eurofins DiscoverX KINOMEscan
Nature of the test: DiscoverX KINOMEscan binding assay at 1 μM, SIK. Conditions: SIK (SIK1); Compound Concentration 1000 nM; read-out: Percent Control.
Description: as §1

The next test has as its target T13, TESK1 (Homo sapiens, UniProt Q15569).
T13 construct: purchased Eurofins DiscoverX KINOMEscan
Nature of the test: DiscoverX KINOMEscan binding assay at 1 μM, TESK1. Conditions: Compound Concentration 1000 nM, read-out: Percent Control.
Description: as §1

For the next test, the target named is T14, MAP3K3 (Homo sapiens, UniProt Q99759).
T14 construct: purchased Eurofins DiscoverX KINOMEscan
Nature of the test: KINOMEscan at 1 μM, MAP3K3. Type of test: binding. Conditions: 1000 nM, read-out: Percent Control. From the text: (§2) Supplement cells-12-00287-s001.zip/File S2. KinomeScan data for the CAMKK2 probe and negative control.xlsx, sheet "SGC-CAMKK2-1N" | column: Percent Control

In test [1] the target is T15, ABL1(Q252H)-phosphorylated (Homo sapiens, UniProt P00519, Q252H).
T15 construct: purchased Eurofins DiscoverX KINOMEscan
Nature of the test: KINOMEscan at 1 μM, ABL1(Q252H)-phosphorylated. It counts as binding. Conditions: 1000 nM, read-out: Percent Control.
Description: as §2

Another test has as its target T16, SBK1 (Homo sapiens, UniProt Q52WX2).
T16 construct: purchased Eurofins DiscoverX KINOMEscan
Nature of the test: KINOMEscan at 1 μM, SBK1. Type of test: binding. Conditions: 1000 nM, read-out: Percent Control.
Description: as §2

Another test concerns the target T17, TNIK (Homo sapiens, UniProt Q9UKE5).
T17 construct: purchased Eurofins DiscoverX KINOMEscan
Kind of test: KINOMEscan at 1 μM, TNIK. Type of test: binding. To be noted: 1000 nM, read-out: Percent Control.
Description: as §2

In a further test the target is T18, PRKX (Homo sapiens, UniProt P51817).
T18 construct: purchased Eurofins DiscoverX KINOMEscan
Nature of the test: KINOMEscan at 1 μM, PRKX. It counts as binding. To be noted: 1000 nM, read-out: Percent Control.
Description: as §2

The next test addresses T19, RIPK5 (Homo sapiens, UniProt Q6XUX3).
T19 construct: purchased Eurofins DiscoverX KINOMEscan
Nature of the test: KINOMEscan at 1 μM, RIPK5. Type of test: binding. Conditions: 1000 nM, read-out: Percent Control.
Description: as §2

The target in another test is T20, p38-alpha (Homo sapiens, UniProt Q16539).
T20 construct: purchased Eurofins DiscoverX KINOMEscan
T20 sequence (Q16539 whole entry): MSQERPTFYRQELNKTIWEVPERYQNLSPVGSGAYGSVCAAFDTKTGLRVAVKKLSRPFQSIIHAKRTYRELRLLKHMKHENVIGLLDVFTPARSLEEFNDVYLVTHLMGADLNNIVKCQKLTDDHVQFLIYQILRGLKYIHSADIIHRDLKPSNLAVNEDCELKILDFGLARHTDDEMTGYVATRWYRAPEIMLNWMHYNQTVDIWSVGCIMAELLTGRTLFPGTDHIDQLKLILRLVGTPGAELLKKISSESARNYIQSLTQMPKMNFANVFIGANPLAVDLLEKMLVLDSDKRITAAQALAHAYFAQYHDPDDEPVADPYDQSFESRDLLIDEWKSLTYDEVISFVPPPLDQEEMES
Kind of test: KINOMEscan at 1 μM, p38-alpha. It counts as binding. Conditions: 1000 nM, read-out: Percent Control.
Description: as §2

The target of the next test is T21, CSNK2A1 (Homo sapiens, UniProt P68400).
T21 construct: purchased Eurofins DiscoverX KINOMEscan
T21 sequence (P68400 whole entry): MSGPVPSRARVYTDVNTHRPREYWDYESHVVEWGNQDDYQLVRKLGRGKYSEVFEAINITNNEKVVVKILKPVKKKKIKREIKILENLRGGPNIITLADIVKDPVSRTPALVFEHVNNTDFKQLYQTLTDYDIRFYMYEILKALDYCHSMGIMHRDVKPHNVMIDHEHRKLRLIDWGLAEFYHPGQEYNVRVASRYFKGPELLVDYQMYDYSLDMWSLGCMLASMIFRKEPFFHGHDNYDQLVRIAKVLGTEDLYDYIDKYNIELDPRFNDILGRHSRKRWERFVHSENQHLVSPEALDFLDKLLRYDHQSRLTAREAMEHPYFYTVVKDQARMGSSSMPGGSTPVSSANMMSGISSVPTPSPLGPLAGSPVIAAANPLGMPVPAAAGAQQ
Kind of test: KINOMEscan at 1 μM, CSNK2A1. It counts as binding. To be noted: 1000 nM, read-out: Percent Control.
Description: as §2

The next test concerns the target T22, LZK (Homo sapiens, UniProt O43283).
T22 construct: purchased Eurofins DiscoverX KINOMEscan
Nature of the test: KINOMEscan at 1 μM, LZK. Type of test: binding. Conditions: 1000 nM, read-out: Percent Control.
Description: as §2

Another test deals with T23, KIT(A829P) (Homo sapiens, UniProt P10721, A829P).
T23 construct: purchased Eurofins DiscoverX KINOMEscan
Kind of test: KINOMEscan at 1 μM, KIT(A829P). Conditions: 1000 nM, read-out: Percent Control. It counts as binding.
Description: as §2

The next test concerns the target T24, NDR1 (Homo sapiens, UniProt Q15208).
T24 construct: purchased Eurofins DiscoverX KINOMEscan
Nature of the test: KINOMEscan at 1 μM, NDR1. Type of test: binding. To be noted: 1000 nM, read-out: Percent Control.
Description: as §2

In another test the target is T25, FLT3 (Homo sapiens, UniProt P36888).
T25 construct: purchased Eurofins DiscoverX KINOMEscan
Nature of the test: KINOMEscan at 1 μM, FLT3. Type of test: binding. Conditions: 1000 nM, read-out: Percent Control.
Description: as §2

A further test concerns the target T26, FLT3-autoinhibited (Homo sapiens, UniProt P36888).
T26 construct: purchased Eurofins DiscoverX KINOMEscan
Nature of the test: KINOMEscan at 1 μM, FLT3-autoinhibited. Type of test: binding. Conditions: 1000 nM, read-out: Percent Control.
Description: as §2

The target of a further test is T27, LIMK2 (Homo sapiens, UniProt P53671).
T27 construct: purchased Eurofins DiscoverX KINOMEscan
Nature of the test: KINOMEscan at 1 μM, LIMK2. To be noted: 1000 nM, read-out: Percent Control. It counts as binding.
Description: as §2

The target of a further test is T28, CSNK1D (Homo sapiens, UniProt P48730).
T28 construct: purchased Eurofins DiscoverX KINOMEscan
Nature of the test: KINOMEscan at 1 μM, CSNK1D. It counts as binding. Conditions: 1000 nM, read-out: Percent Control.
Description: as §2

A further test has as its target T29, BRSK2 (Homo sapiens, UniProt Q8IWQ3).
T29 construct: purchased Eurofins DiscoverX KINOMEscan
Nature of the test: KINOMEscan at 1 μM, BRSK2. Type of test: binding. Conditions: 1000 nM, read-out: Percent Control.
Description: as §2

A further test addresses T30, CDK8 (Homo sapiens, UniProt P49336).
T30 construct: purchased Eurofins DiscoverX KINOMEscan
Kind of test: KINOMEscan at 1 μM, CDK8. It counts as binding. Conditions: 1000 nM, read-out: Percent Control.
Description: as §2

The next test addresses T31, DMPK2 (Homo sapiens, UniProt Q6DT37).
T31 construct: purchased Eurofins DiscoverX KINOMEscan
Kind of test: KINOMEscan at 1 μM, DMPK2. Type of test: binding. To be noted: 1000 nM, read-out: Percent Control.
Description: as §2

The next test has as its target T32, NEK9 (Homo sapiens, UniProt Q8TD19).
T32 construct: purchased Eurofins DiscoverX KINOMEscan
Kind of test: KINOMEscan binding assay at 1 μM, NEK9. To be noted: Compound Concentration 1000 nM; read-out: Percent Control.
Description: as §2

In a further test the target is T33, PRP4 (Homo sapiens, UniProt Q13523).
T33 construct: purchased Eurofins DiscoverX KINOMEscan
Nature of the test: KINOMEscan binding assay at 1 μM, PRP4. Conditions: Compound Concentration 1000 nM; read-out: Percent Control.
Description: as §2

The target in test [2] is T34, RSK4(Kin.Dom.2-C-terminal) (Homo sapiens, UniProt Q9UK32).
T34 construct: RSK4(Kin.Dom.2-C-terminal); purchased Eurofins DiscoverX KINOMEscan
Nature of the test: KINOMEscan binding assay at 1 μM, RSK4(Kin.Dom.2-C-terminal). To be noted: Compound Concentration 1000 nM; read-out: Percent Control.
Description: as §2

T29 sequence (Q8IWQ3 whole entry): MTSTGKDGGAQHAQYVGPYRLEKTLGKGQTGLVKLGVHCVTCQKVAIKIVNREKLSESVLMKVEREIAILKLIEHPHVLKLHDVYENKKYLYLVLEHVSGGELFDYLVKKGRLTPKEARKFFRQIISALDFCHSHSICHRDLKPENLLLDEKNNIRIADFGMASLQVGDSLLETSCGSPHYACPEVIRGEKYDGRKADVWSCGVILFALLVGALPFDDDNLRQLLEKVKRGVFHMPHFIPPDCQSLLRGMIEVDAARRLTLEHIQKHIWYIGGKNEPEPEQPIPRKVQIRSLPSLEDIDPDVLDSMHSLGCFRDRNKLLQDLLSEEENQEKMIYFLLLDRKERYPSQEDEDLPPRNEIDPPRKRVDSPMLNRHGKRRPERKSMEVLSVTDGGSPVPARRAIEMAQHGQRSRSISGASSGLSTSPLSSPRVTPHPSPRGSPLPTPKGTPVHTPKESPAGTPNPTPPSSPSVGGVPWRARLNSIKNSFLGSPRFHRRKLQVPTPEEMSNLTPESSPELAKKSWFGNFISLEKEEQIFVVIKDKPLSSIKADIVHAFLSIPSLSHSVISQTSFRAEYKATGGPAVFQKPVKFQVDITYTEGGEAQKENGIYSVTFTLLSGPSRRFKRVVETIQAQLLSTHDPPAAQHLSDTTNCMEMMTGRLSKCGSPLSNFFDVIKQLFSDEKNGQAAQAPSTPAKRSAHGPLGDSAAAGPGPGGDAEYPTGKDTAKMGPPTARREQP
T16 sequence (Q52WX2 whole entry): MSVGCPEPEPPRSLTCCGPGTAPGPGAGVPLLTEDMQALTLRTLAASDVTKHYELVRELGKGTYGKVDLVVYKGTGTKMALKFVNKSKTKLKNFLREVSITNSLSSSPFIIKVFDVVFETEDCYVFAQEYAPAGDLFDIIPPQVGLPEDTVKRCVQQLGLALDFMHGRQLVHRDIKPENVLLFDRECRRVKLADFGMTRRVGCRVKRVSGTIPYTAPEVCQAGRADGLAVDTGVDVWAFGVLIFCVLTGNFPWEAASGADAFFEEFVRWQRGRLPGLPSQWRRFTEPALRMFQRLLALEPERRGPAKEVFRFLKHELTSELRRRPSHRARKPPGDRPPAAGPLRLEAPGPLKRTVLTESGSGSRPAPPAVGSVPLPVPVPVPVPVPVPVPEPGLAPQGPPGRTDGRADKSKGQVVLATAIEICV
T5 sequence (Q9NRP7 whole entry): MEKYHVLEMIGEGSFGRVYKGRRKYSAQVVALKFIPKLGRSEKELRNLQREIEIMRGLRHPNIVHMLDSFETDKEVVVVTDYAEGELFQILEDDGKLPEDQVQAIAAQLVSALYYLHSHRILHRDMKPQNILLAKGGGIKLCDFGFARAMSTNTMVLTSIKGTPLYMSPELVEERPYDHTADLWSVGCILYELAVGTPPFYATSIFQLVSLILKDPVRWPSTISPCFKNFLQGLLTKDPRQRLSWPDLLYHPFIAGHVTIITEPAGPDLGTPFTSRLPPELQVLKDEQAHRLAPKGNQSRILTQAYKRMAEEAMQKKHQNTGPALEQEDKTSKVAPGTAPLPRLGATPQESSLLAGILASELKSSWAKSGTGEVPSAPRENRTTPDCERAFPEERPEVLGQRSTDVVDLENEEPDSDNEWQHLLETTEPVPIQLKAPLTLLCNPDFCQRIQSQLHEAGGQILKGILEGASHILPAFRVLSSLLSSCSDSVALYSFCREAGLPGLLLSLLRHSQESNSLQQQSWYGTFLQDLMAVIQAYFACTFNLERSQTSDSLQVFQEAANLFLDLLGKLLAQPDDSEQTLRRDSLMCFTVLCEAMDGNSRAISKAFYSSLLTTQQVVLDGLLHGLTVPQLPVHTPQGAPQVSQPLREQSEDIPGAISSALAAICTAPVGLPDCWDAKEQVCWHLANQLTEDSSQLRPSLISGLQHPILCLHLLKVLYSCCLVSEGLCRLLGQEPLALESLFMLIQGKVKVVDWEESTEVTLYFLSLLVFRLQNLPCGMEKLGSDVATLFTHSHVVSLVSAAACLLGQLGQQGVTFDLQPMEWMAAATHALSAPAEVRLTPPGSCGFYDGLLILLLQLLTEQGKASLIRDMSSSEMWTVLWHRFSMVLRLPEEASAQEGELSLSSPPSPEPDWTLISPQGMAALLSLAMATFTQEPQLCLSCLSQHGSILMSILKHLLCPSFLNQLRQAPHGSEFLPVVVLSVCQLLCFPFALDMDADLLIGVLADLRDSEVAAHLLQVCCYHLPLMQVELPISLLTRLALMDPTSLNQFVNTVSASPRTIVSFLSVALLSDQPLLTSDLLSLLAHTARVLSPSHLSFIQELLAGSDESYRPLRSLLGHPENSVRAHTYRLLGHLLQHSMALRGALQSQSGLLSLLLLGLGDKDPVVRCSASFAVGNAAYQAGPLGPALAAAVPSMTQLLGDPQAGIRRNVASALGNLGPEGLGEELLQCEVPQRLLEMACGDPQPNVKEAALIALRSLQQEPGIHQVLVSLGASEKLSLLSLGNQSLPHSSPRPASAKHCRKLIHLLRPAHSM
T19 sequence (Q6XUX3 whole entry): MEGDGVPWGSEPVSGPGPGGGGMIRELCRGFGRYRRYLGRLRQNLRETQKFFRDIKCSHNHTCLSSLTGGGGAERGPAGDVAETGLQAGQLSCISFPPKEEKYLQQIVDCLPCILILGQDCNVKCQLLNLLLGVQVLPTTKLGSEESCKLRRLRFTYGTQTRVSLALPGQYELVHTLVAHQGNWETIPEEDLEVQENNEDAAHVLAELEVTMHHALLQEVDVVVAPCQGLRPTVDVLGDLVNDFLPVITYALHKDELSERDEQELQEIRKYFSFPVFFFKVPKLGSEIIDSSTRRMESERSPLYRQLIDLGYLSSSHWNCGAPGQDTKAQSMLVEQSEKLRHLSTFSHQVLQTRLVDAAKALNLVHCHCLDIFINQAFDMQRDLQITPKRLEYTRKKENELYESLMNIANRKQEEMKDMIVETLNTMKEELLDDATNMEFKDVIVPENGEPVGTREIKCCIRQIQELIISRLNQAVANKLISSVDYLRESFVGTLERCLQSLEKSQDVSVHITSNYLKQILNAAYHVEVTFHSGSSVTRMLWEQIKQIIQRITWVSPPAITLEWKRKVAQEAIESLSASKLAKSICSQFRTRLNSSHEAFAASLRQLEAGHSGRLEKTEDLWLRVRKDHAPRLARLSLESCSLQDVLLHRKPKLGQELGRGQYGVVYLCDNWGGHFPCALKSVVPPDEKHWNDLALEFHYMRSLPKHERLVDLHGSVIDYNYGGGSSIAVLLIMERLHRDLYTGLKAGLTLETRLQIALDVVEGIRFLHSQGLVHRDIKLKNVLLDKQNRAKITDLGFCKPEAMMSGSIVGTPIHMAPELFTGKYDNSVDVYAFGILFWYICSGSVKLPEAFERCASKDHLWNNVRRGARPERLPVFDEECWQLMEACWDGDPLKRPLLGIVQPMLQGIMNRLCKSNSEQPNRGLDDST
T4 sequence (P78368 whole entry): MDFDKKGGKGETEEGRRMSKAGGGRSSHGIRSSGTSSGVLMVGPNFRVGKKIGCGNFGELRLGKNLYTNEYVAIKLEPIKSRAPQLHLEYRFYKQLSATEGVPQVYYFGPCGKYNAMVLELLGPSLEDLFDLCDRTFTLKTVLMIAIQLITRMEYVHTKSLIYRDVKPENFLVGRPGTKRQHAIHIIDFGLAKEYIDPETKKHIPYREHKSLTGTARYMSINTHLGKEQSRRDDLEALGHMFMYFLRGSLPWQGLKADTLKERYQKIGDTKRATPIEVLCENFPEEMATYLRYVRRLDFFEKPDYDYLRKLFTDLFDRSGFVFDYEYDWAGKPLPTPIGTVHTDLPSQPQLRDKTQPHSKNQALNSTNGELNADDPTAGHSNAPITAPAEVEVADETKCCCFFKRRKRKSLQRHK

Consider `Cc1cccc(-c2cnc3occ(-c4ccc(C(=O)O)c(C5CCCC5)c4)c3c2)c1` [SGC-CAMKK2-1 (YL-36)], for which the remaining binding at 1 µM turned out to be 54% at CAMK1G; 85% at CSF1R-autoinhibited; 85% on SYK; 88% at CSNK1G2; 89% at STK36; 92% at GSK3A. Also, the remaining binding at 1 µM on ACVRL1, on BMPR2, on MAPKAPK5, on MARK3, at NEK7 and at SIK was 100% in each case. Further, the remaining binding at 1 µM at TESK1 came to 100%.

Take `O=C(O)c1ccc(-c2coc3ncc(-c4ccccc4)cc23)cc1Cl` [SGC-CAMKK2-1N (UNC-YL-83)]: the remaining binding at 1 µM was found to be 47% on MAP3K3; 61% in [1]; 67% on SBK1; 73% on TNIK; 76% at PRKX; 78% on RIPK5. Moreover, the remaining binding at 1 µM on p38-alpha amounted to 79%; at CSNK2A1, 80%; at LZK, 81%; on KIT(A829P), 86%; on NDR1, 87%; at FLT3, 91%. The remaining binding at 1 µM at FLT3-autoinhibited came out at 91%; at LIMK2, 92%; at CSNK1D, 99%; on BRSK2, 100%; at CDK8 it was 100%; at DMPK2 it was 100%. Also, the remaining binding at 1 µM (on NEK9; at PRP4; in test [2]) was 100% throughout.
